# Source: publication PMC6100415, “Hepatic Metabolism of Sakuranetin and Its Modulating Effects on Cytochrome P450s and UDP-Glucuronosyltransferases” (Molecules : A Journal of Synthetic Chemistry and Natural …, 2018)
# Where two headings read alike, the source gives them in different places.
# Experiments:
# CYP2B6 = target: T1, CYP2B6 (Homo sapiens, UniProt P20813); assay: CYP inhibition in human liver microsomes, bupropion hydroxylation (BPHY); type: in vitro ADME; details: pH 7.4, probe bupropion (hydroxylation, BPHY)
# T1 sequence (P20813 1-491): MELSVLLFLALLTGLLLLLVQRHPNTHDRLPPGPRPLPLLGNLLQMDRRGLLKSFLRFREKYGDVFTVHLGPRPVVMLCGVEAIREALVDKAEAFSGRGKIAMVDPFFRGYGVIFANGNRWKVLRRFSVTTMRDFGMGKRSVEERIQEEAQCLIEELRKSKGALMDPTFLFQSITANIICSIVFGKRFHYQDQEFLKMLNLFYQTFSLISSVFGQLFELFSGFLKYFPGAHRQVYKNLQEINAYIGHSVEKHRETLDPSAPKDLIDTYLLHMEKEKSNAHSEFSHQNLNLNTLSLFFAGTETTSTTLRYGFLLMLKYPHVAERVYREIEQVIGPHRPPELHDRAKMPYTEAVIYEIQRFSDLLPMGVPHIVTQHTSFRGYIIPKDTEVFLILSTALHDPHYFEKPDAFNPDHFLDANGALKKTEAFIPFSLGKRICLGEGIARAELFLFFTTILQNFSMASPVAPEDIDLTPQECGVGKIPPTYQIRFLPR
# Description: (§1) The DAD was set at 280 nm.
# CYP3A4 = CYP3A4 (Homo sapiens, UniProt P08684); assay: CYP inhibition in human liver microsomes, testosterone 6β-hydroxylation (TSTHY); type: in vitro ADME; details: pH 7.4, probe testosterone (6β-hydroxylation, TSTHY)
# Chain of CYP3A4 (P08684 whole entry): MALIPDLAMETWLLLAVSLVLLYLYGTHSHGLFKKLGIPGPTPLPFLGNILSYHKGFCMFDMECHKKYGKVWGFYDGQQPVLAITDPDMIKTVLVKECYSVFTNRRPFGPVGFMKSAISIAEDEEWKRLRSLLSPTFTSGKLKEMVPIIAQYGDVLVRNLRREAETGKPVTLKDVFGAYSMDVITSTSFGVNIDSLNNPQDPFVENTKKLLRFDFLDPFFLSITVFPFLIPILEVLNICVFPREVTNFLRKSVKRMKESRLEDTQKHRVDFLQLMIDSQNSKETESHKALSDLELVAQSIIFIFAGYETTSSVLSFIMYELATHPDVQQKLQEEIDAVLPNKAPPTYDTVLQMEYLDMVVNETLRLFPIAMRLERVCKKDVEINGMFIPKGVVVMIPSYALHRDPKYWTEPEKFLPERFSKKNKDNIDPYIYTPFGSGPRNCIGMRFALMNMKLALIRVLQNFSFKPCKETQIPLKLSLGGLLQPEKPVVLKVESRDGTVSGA
# Description: as §1
# UGT1A3 = target: T2, UGT1A3 (Homo sapiens, UniProt P35503); assay: UGT inhibition in human liver microsomes, chenodeoxycholic acid 24-glucuronidation (CDCAG); type: in vitro ADME; details: pH 7.4, probe chenodeoxycholic acid (200 μM)
# T2 construct: The typical incubation mixture contained human liver microsomes (0.5 mg/mL) along with SKN (10 μM); tissue BD Gentest; host or cells: human liver microsomes
# T2 sequence (P35503 29-534): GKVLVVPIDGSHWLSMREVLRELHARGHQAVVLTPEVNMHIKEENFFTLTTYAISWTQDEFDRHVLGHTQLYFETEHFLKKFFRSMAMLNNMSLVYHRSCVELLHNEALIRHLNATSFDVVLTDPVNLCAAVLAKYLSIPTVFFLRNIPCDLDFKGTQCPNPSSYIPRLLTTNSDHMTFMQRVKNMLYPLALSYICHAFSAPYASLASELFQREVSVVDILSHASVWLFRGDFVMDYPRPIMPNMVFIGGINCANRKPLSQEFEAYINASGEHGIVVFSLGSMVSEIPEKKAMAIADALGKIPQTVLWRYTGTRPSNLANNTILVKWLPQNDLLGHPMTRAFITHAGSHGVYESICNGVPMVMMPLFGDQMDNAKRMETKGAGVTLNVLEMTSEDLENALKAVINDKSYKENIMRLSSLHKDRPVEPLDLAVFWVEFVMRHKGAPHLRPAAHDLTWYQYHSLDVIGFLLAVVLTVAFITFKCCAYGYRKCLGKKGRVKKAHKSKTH
# Experimental: (§2) The formation of a glucuronide conjugate from an isozyme-specific substrate (200 μM, Table 5) was examined to determine UGT activity levels in human liver microsomes. The typical incubation mixture contained human liver microsomes (0.5 mg/mL) along with SKN (10 μM), and MgCl2 (10 mM) in 50 mM Tris-HCl buffer (pH 7.4). The metabolic reaction was initiated by adding UPDGA (2 mM) and stopped by adding an equal volume of ice-cold methanol. […] The conditions used for the operation and analysis of the HPLC-DAD and LC-ESI-MS are provided in the Supplementary Materials and Table S3.
# (§3) The solvent flow rate was set at 0.2 mL/min, and the column temperature was set at 35 °C. The LTQ instrument was operated in negative ion electron spray mode at an ion spray voltage of −4.2 kV and a source temperature of 275 °C. The sheath gas flow rate was 35 arb, and the aux gas flow rate was 5 arb. The MS conditions used to detect glucuronides via selected ion monitoring scan mode are summarized in Supplementary Materials Table S3.
# UGT1A9 = target: T3, UGT1A9 (Homo sapiens, UniProt O60656); assay: UGT inhibition in human liver microsomes, mycophenolic acid O-glucuronidation (MPAG); type: in vitro ADME; details: for inhibition at 10 μM: human, pH 7.4, probe mycophenolic acid (200 μM), O-glucuronidation (MPAG), UGT1A9, MPAG
# T3 construct: The typical incubation mixture contained human liver microsomes (0.5 mg/mL) along with SKN (10 μM); tissue BD Gentest; host or cells: human liver microsomes
# T3 sequence (O60656 26-530): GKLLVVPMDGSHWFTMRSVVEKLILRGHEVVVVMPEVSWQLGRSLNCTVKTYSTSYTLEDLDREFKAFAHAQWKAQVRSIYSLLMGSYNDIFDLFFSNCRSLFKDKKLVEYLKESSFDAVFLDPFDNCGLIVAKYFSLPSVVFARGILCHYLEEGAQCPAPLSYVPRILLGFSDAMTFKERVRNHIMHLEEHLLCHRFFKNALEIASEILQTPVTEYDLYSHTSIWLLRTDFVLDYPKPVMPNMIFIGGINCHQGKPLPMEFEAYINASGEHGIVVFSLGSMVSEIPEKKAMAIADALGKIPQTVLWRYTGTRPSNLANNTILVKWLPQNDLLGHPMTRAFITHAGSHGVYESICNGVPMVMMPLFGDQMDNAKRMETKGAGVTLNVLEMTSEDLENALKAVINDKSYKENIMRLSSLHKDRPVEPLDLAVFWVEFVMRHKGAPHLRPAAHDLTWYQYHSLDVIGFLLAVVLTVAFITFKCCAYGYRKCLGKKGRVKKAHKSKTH
# Experimental: as §2, §3
# CYP2C9 [1] = target: T4, CYP2C9 (Homo sapiens, UniProt P11712); assay: in vitro; details: human liver microsomes, pH 7.4, probe diclofenac (4′-hydroxylation, DCHY), 200 µM
# T4 sequence (P11712 whole entry): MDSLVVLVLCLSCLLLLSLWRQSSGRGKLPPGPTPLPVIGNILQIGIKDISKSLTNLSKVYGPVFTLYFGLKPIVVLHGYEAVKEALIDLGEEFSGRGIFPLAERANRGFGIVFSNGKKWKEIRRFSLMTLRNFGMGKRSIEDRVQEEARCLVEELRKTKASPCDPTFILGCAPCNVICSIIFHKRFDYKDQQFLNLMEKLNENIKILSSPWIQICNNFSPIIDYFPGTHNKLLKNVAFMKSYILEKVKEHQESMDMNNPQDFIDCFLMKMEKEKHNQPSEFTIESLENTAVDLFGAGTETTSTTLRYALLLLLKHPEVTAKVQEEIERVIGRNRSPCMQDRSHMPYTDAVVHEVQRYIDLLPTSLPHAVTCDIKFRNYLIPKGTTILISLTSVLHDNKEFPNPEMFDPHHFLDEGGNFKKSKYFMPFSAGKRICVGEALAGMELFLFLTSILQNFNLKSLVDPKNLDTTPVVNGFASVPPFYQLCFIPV
# Experimental: (§4) The formation of a metabolite from a CYP isozyme-specific phenotyping reaction (Table 4) was monitored. Each substrate (200 μM), along with SKN (10 μM), was incubated with human liver microsomes (0.5 mg/mL) and an NADPH-generating system in 0.1 M potassium phosphate buffer (pH 7.4) at 37 °C for 60 min in a total volume of 200 μL in a shaking water bath. The metabolic reaction was initiated by adding NADP^+ (1 mM) and stopped by adding 10 μL of trichloroacetic acid. In some experiments, the microsomes were pre-incubated with SKN for 15 min prior to the addition of the cofactor, in order to determine the time-dependent inhibitory effect. […] In contrast, co-incubation refers to experiments in which microsomes and cofactors were incubated in the presence of SKN. After centrifugation of incubation samples at 12,000× g for 15 min at 4 °C, the supernatant (20 μL) was injected into an HPLC-DAD system to analyze the metabolites formation (Supplementary Materials).
# (§5) The DAD was set at 248 nm for phenacetin O-deethylation (PCOD), 298 nm for bupropion hydroxylation (BPHY), 276 nm for diclofenac 4′-hydroxylation (DCHY), 230 nm for tolbutamide 6-hydroxylation (TOLHY), 280 nm for dextromethorphan O-demethylation (DEXOD), and 250 nm for testosterone 6β-hydroxylation (TSTHY) and testosterone β-D-glucuronidation (TSTG).
# CYP2C9 [2] = target: T4, CYP2C9; assay: in vitro; details: human liver microsomes, pH 7.4, probe tolbutamide (6-hydroxylation, TOLHY), 200 µM
# Experimental: as §4, §5
# [3] = liver microsomes, 200 μM, SKN 10 μM, 15 min pre-incubation, read-out: % Inhibition in Pre-Incubation
# [4] = liver microsomes, 200 μM, SKN 10 μM, human liver microsomes, read-out: % Inhibition in Co-Incubation
# [5] = human liver microsomes, 200 µM, inhibitor 10 M [sic], human liver microsomes 0.5 mg/mL, read-out: Inhibition (%)
# [6] = inhibitor 10 µM, human liver microsomes 0.5 mg/mL, read-out: Inhibition (%)
# [7] = human liver microsomes, inhibitor 10 µM, human liver microsomes 0.5 mg/mL, read-out: Inhibition (%)
"inhibition at 60 min, 10 µM (CYP2B6; [3]) [%]","inhibition at 60 min, 10 µM (CYP2B6; [4]) [%]","inhibition at 60 min, 10 µM (CYP3A4; [3]) [%]","inhibition at 60 min, 10 µM (CYP3A4; [4]) [%]","inhibition at 10 μM (UGT1A3; SKN 10 μM, 15 min pre-incubation, read-out: % Inhibition in Pre-Incubation) [%]","inhibition at 10 μM (UGT1A3; SKN 10 μM, read-out: % Inhibition in Co-Incubation) [%]","fold higher inhibition of UGT1A9 in the pre-incubation sample than in the co-incubation sample (UGT1A9; SKN, human liver microsomes) [fold]","inhibition at 10 μM (UGT1A9; human liver microsomes, SKN 10 μM, 15 min pre-incubation, read-out: % Inhibition in Pre-Incubation) [%]","inhibition at 10 μM (UGT1A9; human liver microsomes, SKN 10 μM, human liver microsomes, read-out: % Inhibition in Co-Incubation) [%]","mode of UGT1A9 inhibition (UGT1A9; pre-incubation 15 min, 10-fold dilution)","inhibition at 60 min, 10 µM (CYP2B6; [5]) [%]","inhibition at 60 min, 10 µM (CYP3A4; [5]) [%]",inhibition at 10 μM (UGT1A3; [6]) [%],inhibition at 10 μM (UGT1A9; [7]) [%],"inhibition at 60 min, 10 µM (CYP2C9 [1]) [%]","inhibition at 60 min, 10 µM (CYP2C9 [2]) [%]",SMILES
0.8 ± 0.2,-0.6 ± 0.9,12.6 ± 2.8,15.6 ± 0.6,0.8 ± 0.2,-0.6 ± 0.9,1.5,3.5 ± 2.6,-0.6 ± 3.1,irreversible UGT1A9 inhibitor,–,–,–,–,–,–,"COc1cc(O)c2c(c1)OC(c1ccc(O)cc1)CC2=O (racemic) [SKN, (+/−) 7-O-methylnaringenin]"
–,–,–,–,–,–,–,–,–,–,16.1 ± 0.9,3.2 ± 0.7,15.7 ± 2.9,2.9 ± 0.8,1 ± 0.7,7.7 ± 0.4,"O=C1C[C@@H](c2ccc(O)c(O)c2)Oc2cc(O)cc(O)c21 [Eriodictyol, 3′-hydroxynaringenin]"
–,–,–,–,–,–,–,–,–,–,24 ± 2.2,39.6 ± 2.2,2 ± 0.9,2 ± 2.1,9.1 ± 1.8,12 ± 0.7,O=C1C[C@@H](c2ccc(O)cc2)Oc2cc(O)cc(O)c21 [Naringenin]
